# Reference: patent US20250057928A1, “VACCINE COMPOSITION FOR INDUCING ANTI-IL-23 ANTIBODY” (OSAKA UNIVERSITY, priority 2021, published 2025)
# Where no end group is shown, it is not given here.
# How the values were obtained:
# [1] = system: IL-17 production in rhIL-23 stimulated mouse splenocyte; assay: Neutralization activity of mouse antiserum: IL-17 production in rhIL-23 stimulated mouse splenocyte; format: cell-based; details: antiserum final 15-fold, rhIL-23 10 ng/ml, 3 days culture; IL-17A/F ELISA
# Protocol: (§1) AJP001 conjugated peptide (SEQ ID NOs: 6-37) was dissolved in physiological saline, mixed with an equal amount of 2% Alhydrogel (invivogen), and this was intradermally administered to BALB/c mice (female, 6-week-old, N=5-6) at 0.5 mg/body 3 times at two-week intervals. Blood was collected before administration and at the time point of 6 weeks after initial administration, and the antibody titer (GMT) to each epitope sequence and binding ability to recombinant human IL-23 protein (rhIL-23) (Peprotech) were measured by the ELISA method (same method as in Example 1). The binding to rhIL-23 was evaluated by a binding ratio to normal serum by calculating the ratio of the absorbance of a well added with normal mouse serum to the absorbance of a well added with antiserum derived from a mouse administered with each AJP001 conjugated peptide (SEQ ID NOs: 6-37). In addition, the neutralization activity of mouse antiserum was evaluated using an action on IL-17 production in rhIL-23 stimulated mouse splenocyte as an index. The spleen of normal BALB/c mouse (female, 5-week-old, N=3) was triturated using a syringe barrel and a cell strainer and washed with and suspended in HBSS (−). Erythrocytes were then removed using ACK Buffer (Thermo fisher scientific), and splenocytes were isolated. The splenocytes were prepared to 2.5×10^6 cells/mL with 10% FBS/1% penicillin/streptomycin/4 ng/mL rmIL-2-containing RPMI1640 medium (culture medium), and seeded in a 96 well plate at 100 μl/well. The antiserum (final concentration 15-fold) of the mice administered with each AJP001 conjugated peptide and rhIL-23 (final concentration 10 ng/ml) were added to the culture medium, reacted at 37° C. for 2 hr, added at 100 μL/well to a 96-well plate seeded with splenocytes, and cultured for 3 days in a 37° C./5% CO2 incubator. An untreated well and a control well to which normal mouse serum and rhIL-23 were added were provided. IL-17A/F in the culture supernatant was measured using Mouse IL-17A/F ELISA kit (R&D systems), the proportion (%) of IL-17 to normal serum was calculated from the IL-17 concentrations of untreated well (A), control well (B), and well (C) to which antiserum of the mice administered with each AJP001 conjugated peptide was added and according to the following formula, and the neutralization activity was evaluated.
# Percentage of IL-17 to normal serum (%)=100×(C−A/B−A)
# [2] = system: recombinant human IL-23 protein (rhIL-23); assay: Binding of mouse antiserum to rhIL-23, ELISA; details: rhIL-23 ELISA; antiserum of BALB/c mice 6 weeks after initial administration, 0.5 mg/body with Alhydrogel
# Protocol: as §1
# AJP001 conjugated peptide (SEQ ID NO: 6) was dissolved in physiological saline and intradermally administered to BALB/c mice (female, 6-week-old, N=6) at 1 mg/body 3 times at two-week intervals, and blood was collected every 2 weeks until 8 weeks. The antibody titer (GMT) of all the collected sera and the binding ability to rhIL-23 of the serum at 6 weeks were measured by the ELISA method. In FIG. 5, “*” means P<0.05.
# epitope peptide = assay: Antibody titer (GMT) of serum of mice administered AJP001 conjugated peptide, ELISA; format: in vivo, mouse; details: BALB/c mice, 0.5 mg/body intradermal with equal amount of 2% Alhydrogel, 3 times at two-week intervals; serum 6 weeks after initial administration; titer to each epitope sequence
# Protocol: AJP001 conjugated peptide having one of the B cell epitope sequences of SEQ ID NOs: 1-5 was dissolved in physiological saline and intradermally administered twice to BALB/c mice (female, 6-week-old, N=5-6) at 0.5 mg/body at 2-week intervals. Blood was collected before administration and 5 weeks after the initial administration, and the antibody titer against each AJP001 conjugated peptide and the binding ability to recombinant mouse IL-23 protein (rmIL-23) were measured by the ELISA method. Specifically, a 96-well plate immobilized with an epitope peptide dissolved at 10 μg/mL in carbonate buffer was blocked with 5% skim milk/PBS, and then serum serially diluted with 5% skim milk/PBS was added, and the mixture was left standing at 4° C. overnight. After washing the wells with PBS-T, HRP-labeled anti-mouse IgG antibody (GE Healthcare) diluted with 5% skim milk/PBS was added and the mixture was shaken at room temperature for 3 hr. After washing the wells with PBS-T, TMB solution (SIGMA) was added, the wells were allowed to stand for 30 min in the dark, the reaction was stopped by adding 0.5M H2SO4, and the absorbance at 450 nm was measured using a plate reader. The serum dilution rate that gave 1/2 (OD=1.75) of the maximum absorbance was defined as the antibody titer, and the geometric mean titer: GMT was calculated from the individual values. Binding to IL-23 protein was measured by the ELISA method in the same manner as the antibody titer, using rmIL-23 (Antibodies-online GmbH) as the solid-phased antigen and goat serum for blocking.
# AJP001 conjugated peptide (SEQ ID NO: 2) was dissolved in physiological saline and intradermally administered to BALB/c mice (female, 6-week-old, N=6) at 1 mg/body 3 times at two-week intervals, and blood was collected every 2 weeks until 8 weeks. The antibody titer (GMT) of all the collected sera and the binding ability to rmIL-23 of the serum at the time point of 6 weeks were measured by the ELISA method (same method as in Example 1). The antibody titer and the binding of the induced antibody to rmIL-23 at each time point are shown in FIGS. 2 (a) and (b), respectively.
# as §1, with “An untreated well and a control well to which normal mouse serum and rhIL-23 were added were provided. IL-17A/F in the culture supernatant was measured using Mouse IL-17A/F ELISA kit (R&D systems), the proportion (%) of IL-17 to normal serum was calculated from the IL-17 concentrations of untreated well (A), control well (B), and well (C) to which antiserum of the mice administered with each AJP001 conjugated peptide was added and according to the following formula, and the neutralization activity was evaluated.” left out
Substance,neutralization activity (percentage of IL-17 to normal serum (%)) [1],binding to IL-23 (binding ratio to normal serum) [2],antibody titer (GMT) (epitope peptide)
23 (STSQSWQR; not fully specified (N-terminus)) [compound 23],9.4%,1.33,31720
18 (STSQPWQR; not fully specified (N-terminus)) [compound 18],0.0%,1.21,8211
19 (SPSQSWQR; not fully specified (N-terminus)) [compound 19],2.4%,1.33,18311
30 (KKSQPWQR; not fully specified (N-terminus)) [compound 30],68.9%,1.2,6917
14 (SPSQPWQA; not fully specified (N-terminus)) [compound 14],8.0%,1.23,3331
26 (STSQQWQR; not fully specified (N-terminus)) [compound 26],0.0%,1.15,64652
27 (KPSQPWQR; not fully specified (N-terminus)) [compound 27],72.3%,1.07,12615
31 (PSQPWQR; not fully specified (N-terminus); listed as Homo sapiens) [compound 31],63.4%,0.99,12417
35 (SQPWQRK; not fully specified (N-terminus); listed as Homo sapiens) [compound 35],32.5%,1.30,92
10 (SPSAPWQR; not fully specified (N-terminus)) [compound 10],0.0%,1.03,19795
25 (SPSQQWQR; not fully specified (N-terminus)) [compound 25],2.1%,1.66,285265
28 (SKSQPWQR; not fully specified (N-terminus)) [compound 28],42.2%,1.13,4324
12 (SPSQPAQR; not fully specified (N-terminus)) [compound 12],3.1%,1.12,48594
8 (SASQPWQR; not fully specified (N-terminus)) [compound 8],1.4%,1.37,3485
22 (SSSQTWQR; not fully specified (N-terminus)) [compound 22],8.5%,1.35,2160
11 (SPSQAWQR; not fully specified (N-terminus)) [compound 11],8.1%,1.55,10441
17 (SSSQPWQR; not fully specified (N-terminus)) [compound 17],1.6%,1.26,6096
16 (QWQRPWQR; not fully specified (N-terminus)) [compound 16],3.6%,1.09,201
